Laboratory results from patent US20180163221A1, “TRANSGENIC PLANTS EXPRESSING TYPE 2C PROTEIN PHOSPHATASE ABSCISIC ACID (PP2CABA) PROTEINS AND USES THEREOF” (Academia Sinica, priority 2016, published 2018).

Key:
[1] = system: PP2CABA expression in roots; experiment: Quantitative RT-PCR of PP2CABA expression in roots of ABA-treated rice seedlings; assay type: in vivo, Oryza sativa; details: various concentrations of ABA, 24 hours
Method: FIG. 3A to FIG. 3D include diagrams showing plants have higher PP2CABA expression under induction by ABA and abiotic stress and are expressed in meristematic tissues. […] Ten-day-old rice seedlings were treated with 5 μM ABA, 200 mM NaCl, dehydration on tissue papers, or 4° C. for 3 hours. Total RNAs were purified from shoots and roots, and subjected to quantitative RT-PCR analysis using gene specific primers. […] Ten-day-old WT rice seedlings were treated with various concentrations of ABA for 24 hours. Total RNAs were purified from roots, and subjected to quantitative RT-PCR analysis using PP2CABA-specific primers. […] Recombinant GST-PP2CABA, GST-PP2CABA (D100A), GST-ABI2, and GST proteins were expressed in E. coli, purified and reacted with a phosphor peptide substrate, RRApTVA, and phosphatase activities were determined by measuring released free phosphate. […]
Total RNA was purified from rice tissues using Trizol reagent (Invitrogen) and treated with RNase-free DNase I (Promega). […] For quantitative RT-PCR analyses, 5-μl of cDNA was mixed with primers and the 2× Power SYBR Green PCR Master Mix reagent (Roche) and applied to an ABI 7500 Real-Time PCR system (Applied Biosystems). The quantitative variation between different samples was evaluated by the Δ-Δ cycle threshold method, and the amplification of ubiquitin 5 was used as an internal control to normalize all data.

PP2CABA promoter = experiment: GUS staining of transgenic rice carrying PP2CABA:GUS treated with ABA; assay type: in vivo, Oryza sativa; details: 10 μM ABA for 1 day; basal meristem region in root tips, LR primordia and young leaves
Method: (§1) FIG. 3A to FIG. 3D include diagrams showing plants have higher PP2CABA expression under induction by ABA and abiotic stress and are expressed in meristematic tissues. […] Ten-day-old rice seedlings were treated with 5 μM ABA, 200 mM NaCl, dehydration on tissue papers, or 4° C. for 3 hours. Total RNAs were purified from shoots and roots, and subjected to quantitative RT-PCR analysis using gene specific primers. […] Ten-day-old WT rice seedlings were treated with various concentrations of ABA for 24 hours. Total RNAs were purified from roots, and subjected to quantitative RT-PCR analysis using PP2CABA-specific primers. […] Recombinant GST-PP2CABA, GST-PP2CABA (D100A), GST-ABI2, and GST proteins were expressed in E. coli, purified and reacted with a phosphor peptide substrate, RRApTVA, and phosphatase activities were determined by measuring released free phosphate. […] Ten-day-old seedlings of transgenic rice carrying PP2CABA:GUS were treated with (lower panel) or without (upper panel) 10 μM ABA for 1 day and then stained for GUS activity. Arrow indicates young leaves.
Tissues were placed in GUS assay buffer containing (0.1 M NaPO4 buffer pH 7.0, 10 mM EDTA, 0.1% Triton X-100, 0.5 mM potassium ferricyanide pH 7.0, and 1.0 mM X-glucuronide) and incubated overnight at 37° C. Vacuum aspiration was applied during initial 30 minutes. […]

rice seedlings [2] = experiment: Lateral root growth and root diameter of rice seedlings treated with ABA; assay type: in vivo, Oryza sativa; details: 1 μM ABA
Method: FIG. 5A to FIG. 5B include photos showing plants have lower LR to PR ratio under induction of ABA and expression of PP2CABA. […] Ten-day-old seedlings of segregated wild type (WT) or pp2caba homozygous mutant were treated with (+) or without (−) 1 μM ABA for 3 days. Upper panel: morphology of roots. Lower panel: elongation of LR in boxed area (1 cm above the root tip) of roots in upper panel. LRP (marked by arrowheads) were initiated but not elongated in WT in the presence of ABA. […] Upper panel: morphology of roots. Lower panel: elongation of LR in boxed area (2 cm above the root tip) of roots in upper panel. LRP (marked by arrowheads) were initiated but not elongated in PP2CABA-overexpressing transgenic rice. S: seminal roots. C: crown roots.
The japonica rice (Oryza sativa cv Tainung 67) was used in this study. Plasmids were introduced into Agrobacterium tumefaciens strain EHA105, and rice transformation was performed as described (Chen et al., J Biol Chem, 277:13641 (2002)). The PP2CABA mutant seeds were obtained from the Taiwan Rice Insertional Mutant (TRIM) library (Hsing et al., Plant Molecular Biology, 63:351 (2007)). For hydroponic culture of rice seedlings, seeds were sterilized with 3% NaOCl for 30 minutes, washed extensively with distilled water, and germinated in petri dishes with wetted filter papers at 37° C. in the dark. After 48 h of incubation, germinated seeds were cultivated in Yoshida solution (Yoshida et al., International Rice Research Institute, 3 (1976)). The culture solution was replaced with fresh solution every 2 days. For observation of root growth in glass tube with phytagel, sterilized rice seeds were germinated on the surface of plate with Yoshida solution with 0.3% phytagel without sugar in the dark at 28° C. for about 48 hours. The germinated seedlings were then transplanted to glass tubes, which were 22 cm in height and 4.5 cm in diameter, and each filled with 150 ml Yoshida solution with 0.3% phytagel without sugar. 6 cm plastic dish was used to cover the glass tube and sealed by micropore tape to allow light penetration and gas exchange and prevent the medium from becoming contaminated by external microbes. Seedlings were grown under a 14-h-light/10-h-dark cycle in a 28° C. chamber.

[3] = system: genes essential for lignin and suberin biosynthesis; experiment: Quantitative RT-PCR of lignin and suberin biosynthesis genes in roots of ABA-treated WT rice; assay type: in vivo, Oryza sativa; details: ABA 24 hours, except PAL and CAD
Source text: FIG. 9A to FIG. 9B include diagrams showing that ABA and PP2CABA up-regulating the expression of genes essential for lignin and suberin biosynthesis. […] Total RNA was purified from roots and subjected to quantitative RT-PCR analysis using gene specific primers.
Total RNA was purified from rice tissues using Trizol reagent (Invitrogen) and treated with RNase-free DNase I (Promega). The DNase-digested RNA sample was used for reverse transcription by Superscript III reverse transcriptase (Invitrogen). Samples, which served as cDNA stocks for PCR analysis, were stored at −70° C. RT-PCR analysis was performed in a 50-μl solution containing 5-μl cDNA stock using Taq DNA polymerase (Viogene). RT-PCR products were fractionated in a 1.5% agarose gel and visualized by ethidium bromide staining. All RT-PCR analyses were performed from at least two batches of RNA samples with similar results. For quantitative RT-PCR analyses, 5-μl of cDNA was mixed with primers and the 2× Power SYBR Green PCR Master Mix reagent (Roche) and applied to an ABI 7500 Real-Time PCR system (Applied Biosystems). The quantitative variation between different samples was evaluated by the Δ-Δ cycle threshold method, and the amplification of ubiquitin 5 was used as an internal control to normalize all data.

rice roots = experiment: Histochemical staining of root sections for lignin (acriflavine) and suberin (fluorol yellow 088); assay type: in vivo, Oryza sativa; details: 1 μM ABA, 3 days
Method: FIG. 10A to FIG. 10B include photos showing ABA and PP2CABA enhance the accumulation of lignin and suberin in cell walls of root peripheral layers and increase the root diameter. […] 1 μM ABA was added and seedlings were cultured for another 3 days. […] Roots at 1 cm above the apex were cross-sectioned and stained with acriflavine for lignin and fluorol yellow 088 for suberin. F, fluorescence image; T, transmission image; EP, epidermis; EX, exodermis; SC, sclerenchyma; CO, cortex. Scale bars=10 μm.
Methonal fixed roots were embedded in 5% agar and cut into 100 μm cross sections using a vibratome (DOSAKA DTK-1000). To check for autofluorescence, sections were viewed under a Zeiss Axiolmager Z1 fluorescence microscope with UV illumination using excitation filter G 365, chromatic beam splitter FT 395, and barrier filter LP 420. To check for lignin distribution, sections were stained with Acriflavine as described (Rocha et al., Front Plant Sci, 5:102 (2014)). Sections were imaged with a Zeiss LSM 510 META confocal microscope using a 488 nm laser line for excitation and a 505 to 550 nm band pass filter for emission. To check for suberin lamellae, sections were stained with Fluorol Yellow 088 as described (Brundrett et al., Biotech Histochem, 66:111 (1991); Landgraf et al., Plant Cell, 26:3403 (2014)). […]

rice seedlings [4] = details: Chen et al. 2015; cited from earlier work
[5] = target: T1, phosphor peptide substrate RRApTVA
T1 chain: RRATVA

[6] = system: phosphor peptide substrate, RRApTVA; experiment: Phosphatase activity assay of GST fusion proteins (released free phosphate); assay type: biochemical; details: recombinant GST fusion protein from E. coli, synthetic phosphopeptide
Method: as §1
FIG. 6A to FIG. 6E include diagrams showing PP2CABA having two forms which are translated from the first and the second ATG codons. […] The 2nd ATG encodes the Met at amino acid residue 41. Amino acids 1-24 are putative signal peptide (SP). […] Protein loading is shown by the Ponceau S staining (lower panel). […]

CC1=CC(=O)CC(C)(C)[C@@]1(O)/C=C/C(C)=C\C(=O)O [ABA, abscisic acid]
dose dependence of PP2CABA expression in roots [1]: increased with ABA concentrations in a dose-dependent manner
PP2CABA promoter activity (GUS) (PP2CABA promoter): induced
LR growth, WT compared with pp2caba (rice seedlings [2]): more severely inhibited in WT than in pp2caba mutant
LR growth in WT (rice seedlings [2]; 3 days, WT seedlings, maturation zones of roots): completely inhibited
LR growth in pp2caba (rice seedlings [2]; 3 days, pp2caba homozygous mutant, maturation zones of roots): stunted
root diameter (rice seedlings [2]; both WT and pp2caba): enlarged
expression of lignin and suberin biosynthesis genes [3]: induced
accumulation of lignin and suberin in endodermal and exodermal cell layers in roots (rice roots): enhanced the accumulation of lignin and suberin
ABA concentrations that enhance LR growth (rice seedlings [4]): ≤ 0.1 µM
ABA concentrations that inhibit LR growth (rice seedlings [4]): ≥ 0.2 µM

B1: GST-PP2CABA (protein)
chain: LSQGAEEEEDDGEVRLMGLAGEAAGSPGSGGGFSANGKFSYGYASSPGKRSSMEDFYDTRIDGVDGETVGLFGVFDGHGGARAAEFVKQNLFTNLIKHPKLFSDTKSAIAETYTSTDSELLKAETSHNRDAGSTASTAILVGDRLLVANVGDSRAVICRGGDAIAVSRDHKPDQSDERQRIEDAGGFVMWAGTWRVGGVLAVSRAFGDKLLKQYVVADPEIKEEVVDSSLEFLILASDGLWDVVTNEEAVAMVKPILDSEQAAKKLLQEASQRGSADNITCLVVRFLEQENHLPERPTNDQAS
phosphatase activity (released free phosphate) [5]: GST-PP2CABA fusion protein expressed and purified from E. coli exhibited phosphatase activity

B2: GST-PP2CABA: GST-PP2CABA fusion protein expressed and purified from E. coli (protein)
chain: LSQGAEEEEDDGEVRLMGLAGEAAGSPGSGGGFSANGKFSYGYASSPGKRSSMEDFYDTRIDGVDGETVGLFGVFDGHGGARAAEFVKQNLFTNLIKHPKLFSDTKSAIAETYTSTDSELLKAETSHNRDAGSTASTAILVGDRLLVANVGDSRAVICRGGDAIAVSRDHKPDQSDERQRIEDAGGFVMWAGTWRVGGVLAVSRAFGDKLLKQYVVADPEIKEEVVDSSLEFLILASDGLWDVVTNEEAVAMVKPILDSEQAAKKLLQEASQRGSADNITCLVVRFLEQENHLPERPTNDQAS
modifications: left off: a dimerising Fc or GST
notes: GST-PP2CABA fusion protein expressed and purified from E. coli
phosphatase activity [6]: exhibited phosphatase activity

B3: GST-PP2CABA(25-327) (protein)
chain: LSQGAEEEEDDGEVRLMGLAGEAAGSPGSGGGFSANGKFSYGYASSPGKRSSMEDFYDTRIDGVDGETVGLFGVFDGHGGARAAEFVKQNLFTNLIKHPKLFSDTKSAIAETYTSTDSELLKAETSHNRDAGSTASTAILVGDRLLVANVGDSRAVICRGGDAIAVSRDHKPDQSDERQRIEDAGGFVMWAGTWRVGGVLAVSRAFGDKLLKQYVVADPEIKEEVVDSSLEFLILASDGLWDVVTNEEAVAMVKPILDSEQAAKKLLQEASQRGSADNITCLVVRFLEQENHLPERPTNDQAS
phosphatase activity (released free phosphate) [5]: both of L form and S form of PP2CABA have phosphatase activities

B4: GST-PPCABA(41-327) (protein)
chain: MGLAGEAAGSPGSGGGFSANGKFSYGYASSPGKRSSMEDFYDTRIDGVDGETVGLFGVFDGHGGARAAEFVKQNLFTNLIKHPKLFSDTKSAIAETYTSTDSELLKAETSHNRDAGSTASTAILVGDRLLVANVGDSRAVICRGGDAIAVSRDHKPDQSDERQRIEDAGGFVMWAGTWRVGGVLAVSRAFGDKLLKQYVVADPEIKEEVVDSSLEFLILASDGLWDVVTNEEAVAMVKPILDSEQAAKKLLQEASQRGSADNITCLVVRFLEQENHLPERPTNDQAS
phosphatase activity (released free phosphate) [5]: both of L form and S form of PP2CABA have phosphatase activities
phosphatase activity [6]: have phosphatase activities
